Experimental data from ChEMBL document CHEMBL5154941, “Structural Modifications of Nimodipine Lead to Novel PDE1 Inhibitors with Anti-pulmonary Fibrosis Effects” (J Med Chem, 2022).

Molecular target: Dual specificity calcium/calmodulin-dependent 3',5'-cyclic nucleotide phosphodiesterase 1C (Homo sapiens, UniProt Q14123)
Assay: Inhibition of PDE1C (147 to 531 residues) (unknown origin) expressed in Escherichia coli BL21 using [3H]-cGMP as substrate measured for 15 mins by liquid scintillation counter method

Chain of Dual specificity calcium/calmodulin-dependent 3',5'-cyclic nucleotide phosphodiesterase 1C (Q14123 whole entry, the tested form may be a part): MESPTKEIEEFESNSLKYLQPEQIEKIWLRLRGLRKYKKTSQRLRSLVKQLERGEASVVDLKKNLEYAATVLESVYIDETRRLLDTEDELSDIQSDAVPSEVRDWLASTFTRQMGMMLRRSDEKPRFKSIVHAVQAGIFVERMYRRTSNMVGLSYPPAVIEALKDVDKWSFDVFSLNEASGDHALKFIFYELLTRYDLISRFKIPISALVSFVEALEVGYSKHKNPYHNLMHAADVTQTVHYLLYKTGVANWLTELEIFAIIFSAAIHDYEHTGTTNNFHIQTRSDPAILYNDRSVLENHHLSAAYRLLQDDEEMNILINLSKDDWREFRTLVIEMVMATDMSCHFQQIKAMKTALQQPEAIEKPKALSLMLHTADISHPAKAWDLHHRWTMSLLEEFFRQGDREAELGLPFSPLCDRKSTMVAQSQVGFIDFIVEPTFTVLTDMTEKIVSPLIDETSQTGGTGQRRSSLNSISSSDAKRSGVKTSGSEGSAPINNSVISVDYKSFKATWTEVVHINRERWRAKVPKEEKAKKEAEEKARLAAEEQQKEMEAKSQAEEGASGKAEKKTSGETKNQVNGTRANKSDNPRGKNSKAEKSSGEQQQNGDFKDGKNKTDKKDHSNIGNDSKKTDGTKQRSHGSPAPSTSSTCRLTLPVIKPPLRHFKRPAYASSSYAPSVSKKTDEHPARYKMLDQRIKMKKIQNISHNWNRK

- IC50: 189 nM
Compound: CC1=C(C(=O)OCc2cncs2)C(c2ccc3c(cnn3C)c2)C(C(=O)OCc2cncs2)=C(C)N1
